From patent US11339124B2, “3-(benzylamino)-4-(cyclohexylamino)-n-(2-(piperazin-1-yl)ethyl)benzenesulfonamide derivatives and related ferrostatin-1 analogues as cell death inhibitors for treating e.g. stroke” (VIB VZW, priority 2018, dated 2022)

How the values were obtained:
[1] = Plasma stability, mouse plasma; format: in vitro ADME; details: 37° C., remaining parent compound, read-out: Plasma stability (% recovery after 6 h), Mouse
Description: (§1) 5 μl of a 10 mM stock solution of the compound in DMSO was added to 995 μl of plasma to obtain a 50 μM final solution. The mixture was gently shaken for 6 h at 37° C. Aliquots of 100 μl were taken at various time points (0, 0.5 h, 1 h, 2 h, 3 h and 6 h) and diluted with 400 μl of cold methanol (stored at 4° C.). The suspension was centrifuged at 14000 rpm for 5 min. 50 μl of the supernatant was diluted with 950 μl of methanol and analysed with LC/MS/MS. The samples were analysed in triplicate. The experiment was done in duplicate. […] Enalapril maleate was used as a control in mice, rats, and in human.

[2] = Microsomal (metabolic) stability, rat liver microsomes; details: for CLint scaled at 10 µM / half-life at 10 µM: rat
Source text: (§2) By using the measured microsomal in vitro t1/2, a calculated value for the intrinsic clearance Clint can be determined. This value states the measure in which a drug that is not bound to plasma proteins is irreversibly removed from the body by the liver. This value is expressed in mL/min/kg which can be interpreted as the volume of blood in mL that is cleared of a drug per minute per kilogram of body weight. The CLint is less sensitive to used variables in ADME assays since the amount of microsomal protein and the volume of the incubation are all taken into account. (Sohlenius-Sternbeck et al., Xenobiotica, 2012, 42, 841-853)
(§3) Liver microsomes (20 mg protein/ml), NADPH regenerating system solutions A & B and 5 mM stock compound solution (100% DMSO) are prepared. The reaction mixture finally contains 713 μL purified water, 200 μL 0.5 M potassium phosphate pH 7.4, 50 μL NADPH regenerating system solution A (BD Biosciences Cat. No. 451220), 10 μL NADPH regenerating system solution B (BD Biosciences Cat. No. 451200) and 2 μL of the compound stock solution (10 μM final concentration). The reaction mixture is warmed to 37° C. for 5 minutes in a water bath and the reaction is initiated by addition of 25 μL of liver microsomes (0.5 mg protein/ml final concentration). At different time points (0 min-15 min-30 min-60 min-120 min-240 min-360 min-24 h), 20 μL is withdrawn and 80 μL cold acetonitrile is added on ice for 10 minutes. Then the mixtures are centrifuged at 13 000 rpm for 5 min at 4° C. The supernatant is further diluted in 90% water/MeCN (1/25) to fall within the range of the LC/MS/MS analysis. At each time point, the compound is analysed using LC/MS/MS with the same UPLC system as described above. A standard curve of six points was made to fit the measured concentrations. Verapamil was used as a positive control.
(§4) All obtained readouts were processed using Microsoft Excel. In order to determine the microsomal half-life t1/2 of the compounds, the rate constant k was determined by plotting the exponential decay graphs using GraFit. Microsomal t1/2 was determined using the following formula: […]

[3] = Microsomal (metabolic) stability, mouse liver microsomes; details: pH 7.4
Source text: as §2, §3, §4

[4] = Pharmacokinetics and tissue distribution after single-dose iv injection in mice; format: in vivo; details: single-dose iv injection (~10 mg/kg)
[5] = Plasma stability, rat plasma; format: in vitro ADME; details: 37° C., remaining parent compound, read-out: Plasma stability (% recovery after 6 h), Rat
Description: as §1

[6] = Kinetic solubility (turbidimetric method); format: physicochemical; details: 10 mM PBS pH 7.4, 2% DMSO, test range 3.125-200 μM, 2 h at 37° C.
Description: A turbidimetric method was used. First a series of DMSO compound stock solutions was prepared ([…]). An aliquot of 4 μL stock solution was added to 196 μL PBS buffer (pH 7.4). A series of concentrations were prepared (3.13-200 μM), including a blank on a microtiter plate. (2% DMSO-D6) The microtiter plate was shaken for 10 seconds and incubated for 2 hours at 37° C. When there was no turbidity measured at a given concentration the sample was assumed to be dissolved.

[7] = test system: acute iron poisoning induced organ damage; assay: Acute iron poisoning (FeSO4) induced organ damage, plasma LDH and creatine kinase; format: in vivo; details: for Protection against organ damage: plasma lactate dehydrogenase (LDH) and creatine kinase levels, prophylactic setting: ~10 mg/kg iv 15 min before FeSO4 300 mg/kg ip, plasma 2 h after challenge (FIG. 5A); for Protection against organ damage: plasma lactate dehydrogenase (LDH) and creatine kinase levels, therapeutic setting: ~10 mg/kg iv 30 min after FeSO4 300 mg/kg ip, plasma 8 h after challenge (FIG. 5B)
Description: Equimolar amounts of ferroptosis inhibitors (˜10 mg/kg) were injected iv 15 min before ip injection of FeSO4 (300 mg/kg). Plasma was collected 2 h after FeSO4-challenge and analyzed for the presence of lactate dehydrogenase (LDH) and creatine kinase. Fer-1 is ferrostatin, 3234 is compound 37,3206 is compound 38 and 3203 is compound 39 (see Table 1 for numbering and structure). […] Equimolar amounts of ferroptosis inhibitors (˜10 mg/kg) were injected iv 30 min after ip injection of FeSO4 (300 mg/kg). Plasma was collected 8 h after FeSO4-challenge and analyzed for the presence of lactate dehydrogenase (LDH) and creatine kinase.
We identified acute iron poisoning as a novel experimental model for in rhabdomyolysis-induced kidney failure.

[8] = Pharmacokinetics and tissue distribution after single-dose iv injection in mice; format: in vivo; details: iv ~10 mg/kg; for Tissue distribution profile, levels in organs: 24 h after injection; for Crossing of the blood-brain barrier: brain tissue (FIG. 4), 10 mg/kg
Description: FIG. 4: Tissue distribution of ferrostatin-analogues. Equimolar amounts of Ferrostatin (Fer-1), compound 39 (depicted as UAMC-3203) and compound 38 (depicted as UAMC-3206) (˜10 mg/kg) were injected intravenously 2 h (left panel) or 24 h (right panel) before tissue collection (heart, liver, lung, muscle, kidney and brain). Tissues were collected, snap frozen in liquid nitrogen, homogenized and stored at −80° C. until analysis. The tissue samples for LC-MS were further processed by protein precipitation by diluting 20 μL of the homogenate with 80 μL ACN containing IS (tolbutamide). After centrifugation, the supernatant was further diluted in the appropriate solvent.
The detected levels of UAMC-3203 vary between 3-60 ng/mg tissue depending on the organ, which is up to […] or 6-fold higher than the dose injected.

[9] = Microsomal (metabolic) stability, human liver microsomes; details: for CLint scaled at 10 µM / half-life at 10 µM: human, liver microsomes; for CLint scaled at 10 µM: pH 7.4; for half-life at 10 µM: pH 7.4, Microsomal stability (t1/2); for half-life at 10 µM / Microsomal stability (t1/2), Human: human liver microsomes, 0.5 mg protein/ml, 10 μM compound, 37° C.; for Microsomal stability (t1/2), Human: Hydrochloride
Source text: as §2, §3, §4

[10] = liver microsomes, pH 7.4, Microsomal stability (t1/2), rat liver microsomes, 0.5 mg protein/ml, 10 μM compound, 37° C.

Row | Structure (SMILES) | recovery at 6 h, 50 μM [1] [%] | CLint scaled at 10 µM ([2]; liver microsomes, pH 7.4) [mL/min/kg] | half-life at 10 µM [2, 10] [h] | CLint scaled at 10 µM ([3]; liver microsomes) [mL/min/kg] | Levels in blood [4] | recovery at 6 h, 50 μM [5] [%] | Solubility (kinetic) [6] [µM] | Protection against organ damage: plasma lactate dehydrogenase (LDH) and creatine kinase levels, prophylactic setting [7] | Protection against organ damage: plasma lactate dehydrogenase (LDH) and creatine kinase levels, therapeutic setting [7] | Tissue distribution profile, levels in organs [8] | CLint scaled at 10 µM [9] [mL/min/kg] | half-life at 10 µM [9] [h] | half-life at 10 µM ([3]; microsomes) [h] | Microsomal stability (t1/2), Human [9] [h] | further results
1 | CNCCNS(=O)(=O)c1ccc(NC2CCCCC2)c(NCc2ccccc2)c1.Cl [Compound 37, 3-(benzylamino)-4-(cyclohexylamino)-N-(2-(methylamino)ethyl)benzenesulfonamide Hydrochloride] | 100 | 161 ± 4.6 | 0.35 ± 0.01 | 139 ± 6.2 | almost undetectable levels in blood | 65.8 | >200 | more effective | more effective | not detected in any organ | 1.7 ± 0.5 | 13.2 ± 4.1 | – | – | half-life at 10 µM ([3]; liver microsomes): 0.45 ± 0.02 h
2 | Cl.NCCNS(=O)(=O)c1ccc(NC2CCCCC2)c(NCc2ccccc2)c1 [Compound 38, N-(2-aminoethyl)-3-(benzylamino)-4-(cyclohexylamino)benzenesulfonamide Hydrochloride] | 100 | 27.4 ± 2.7 | – | 4.8 ± 1.5 | almost undetectable levels in blood | 100 | >200 | more effective | more effective | detected in very low levels | 1.3 ± 0.1 | 17.7 | 13 | 17.71 ± 2.04 | half-life at 10 µM ([2]; microsomes, pH 7.4): 2.05 h
3 | Cl.O=S(=O)(NCCN1CCNCC1)c1ccc(NC2CCCCC2)c(NCc2ccccc2)c1 [Compound 39, 3-(benzylamino)-4-(cyclohexylamino)-N-(2-(piperazin-1-yl)ethyl)benzenesulfonamide Hydrochloride] | 100 | 3.4 ± 1 | 16.5 | 18 ± 7.1 | almost undetectable levels in blood | 85.8 | >200 | more effective | more effective | still present in range of 2- to 100-fold less than the dose injected | 1.1 ± 0.3 | 20.5 | 3.46 | 20.53 ± 5.49 | Microsomal stability (t1/2), Rat ([2]; rat liver microsomes, 0.5 mg protein/ml, 10 μM compound, 37° C., Hydrochloride): 16.48 ± 4.66 h; Tissue distribution profile compared to -3206 and benchmark Fer-1 ([8]; 2 h after injection): superior profile; Crossing of the blood-brain barrier ([8]; Hydrochloride): efficiently crosses the blood brain barrier; Crossing of the blood-brain barrier ([8]; listed as UAMC-3203, Hydrochloride): seems to cross the blood-brain barrier; concentration at 2 h ([8]; mouse, tissues (heart, liver, lung, muscle, kidney, brain), 2 h after injection, read-out: Detected levels in tissue depending on the organ): 3000 to 60000 ng/g
